Patent publication US20240270748A1 (Merck Patent GmbH, priority 2021, published 2024)
Where a name gives a salt, the structure may show the parent alone.

These molecules were tested on YAP-TEAD interaction (assay: SK-HEP-1 reporter assay (8xTEAD responsive elements driving NanoLuc luciferase)). Conditions: Homo sapiens, SK-HEP1, SK-HEP-1 reporter assay; class symbols.
Format: cell-based
Procedure: To identify inhibitors of YAP-TEAD interaction, 8×TEAD responsive elements driving the NanoLuc® luciferase gene were stably integrated into SK-HEP-1 cells (ECACC #: 91091816).
For the assay, cells were treated in duplicates with the test compounds in a 10-point dose, with the top concentration starting at 30 μM (final concentration in assay). After a 24 hour incubation at 37° C., 95% rH, and 5% CO2, a luciferase substrate/lysis reagent mix (NanoGlo™, Promega) was added to the cells, allowing the quantification of cellular luciferase activity.
Cell Media: The cells were cultured in the following media: MEM, +10% FBS, +1× GlutaMAX, +1 mM Sodium-Pyruvate, +100 μM Non-essential amino acids, +0.1 mg/ml Hygromycin. The media used for the assay was: MEM (w/o Phenol Red), +10% FBS, +1× GlutaMAX, +1 mM Sodium-Pyruvate, +100 μM Non-essential amino acids, +0.5% Pen/Strep
Reagents: The reagents used are listed below:
Cell culture: The cells were examined using an inverted microscope to check for health and cell density. To dissociate adherent cells, the monolayer of cells was washed once with pre-warmed PBS. After removing the PBS, 3 ml pre-warmed Accutase® was added to a F75 flask, dispersed evenly and the flask was allowed to sit in incubator for ˜4-5 minutes.
When a single cell suspension was obtained, 7 ml of prewarmed growth media was added and resuspended with the cells. The cell suspension was transferred to a sterile 15 ml conical centrifuge tube, and spun for 5 min at 300×g, RT. The supernatant was discarded and the pellet was resuspended in 10 ml of pre-warmed growth media.
The total cell count was determined, and 20 μl of the desired cell number was added to each well of a 384 well plate using a Multidrop Combi. The plates were then incubated for 24 hours at 37° C., 95% rH, and 5% C02.
Compound treatment: 24 hours after seeding, the cells were treated with compounds.
A 1:333 dilution of compounds, diluted in DMSO, was made to get a final concentration of 0.3% DMSO per well. To transfer the compounds to the assay plate, […] was shot from Labcyte low dead volume plates to the cell plates containing 20 μl media/well with the ECHO 555 liquid handling system.
After treatment, the cells were fed with 20 μl fresh pre-warmed assay media using a Multidrop combi.
The assay plates were then incubated for another 24 h at 37° C., 95% rH, and 5% CO2.
Luciferase readout: 24 h after treatment, the plates were taken out of the incubator and were allowed to equilibrate to RT. 30 μl of NanoGlo® reagent was added to the plates in the dark. Plates were shaken for 20 min on a Teleshake (˜1500 rpm) in the dark. The luminescence was then measured using an EnVision microplate reader. The IC50 values were generated using Genedata Screener®.
Work on Cn1cc2c3cc(C(=O)NC[C@@H](O)C(F)(F)F)ccc3n(-c3ccc(C(F)(F)F)cc3)c2n1 [Example C135, 2-methyl-N-[(2R)-3,3,3-trifluoro-2-hydroxypropyl]-8-[4-(trifluoromethyl)phenyl]-2H,8H-pyrazolo[3,4-b]indole-5-carboxamide] yielded an IC50 of 0.1 to 10 µM.
Molecule CCN1CCC(NC(=O)c2ccc3c(c2)c2cn(C)nc2n3-c2ccc(C(F)(F)F)cc2)CC1 [Example C136, N-(1-ethylpiperidin-4-yl)-2-methyl-8-[4-(trifluoromethyl)phenyl]-2H,8H-pyrazolo[3,4-b]indole-5-carboxamide trifluoroacetate] has an IC50 of 0.1 to 10 µM.
Cn1cc2c3cc(C(=O)N=S4(=O)CCC5(CCNCC5)C4)ccc3n(-c3ccc(C(F)(F)F)cc3)c2n1 (centres unmarked) [Example C138, 2-methyl-N-{2-oxo-2lambda6-thia-8-azaspiro[4.5]decan-2-ylidene}-8-[4-(trifluoromethyl)phenyl]-2H,8H-pyrazolo[3,4-b]indole-5-carboxamide] gave an IC50 of 0.1 to 10 µM.
Cn1cc2c3cc(C(=O)N=S4(=O)CCC(C)(N)CC4)ccc3n(-c3ccc(C(F)(F)F)cc3)c2n1 (centres unmarked) [Example C139, N-(4-amino-4-methyl-1-oxo-1lambda6-thian-1-ylidene)-2-methyl-8-[4-(trifluoromethyl)phenyl]-2H,8H-pyrazolo[3,4-b]indole-5-carboxamide] gave an IC50 of 0.1 to 10 µM.
In the case of Cn1cc2c3cc(C(=O)NCCOC4CCNC4)ccc3n(-c3ccc(C(F)(F)F)cc3)c2n1 (centres unmarked) [Example C142, 2-methyl-N-[2-(pyrrolidin-3-yloxy)ethyl]-8-[4-(trifluoromethyl)phenyl]-2H,8H-pyrazolo[3,4-b]indole-5-carboxamide], the IC50 is reported as 0.1 to 10 µM.
With C[C@H](NC(=O)c1ccc2c(c1)c1cn(C)nc1n2-c1ccc(C(F)(F)F)cc1)C1CNC1 [Example C144, N-[(1S)-1-(azetidin-3-yl)ethyl]-2-methyl-8-[4-(trifluoromethyl)phenyl]-2H,8H-pyrazolo[3,4-b]indole-5-carboxamidetrifluoroacetate] the IC50 was 0.1 to 10 µM.
With CC(N)CS(C)(=O)=NC(=O)c1ccc2c(c1)c1cn(C)nc1n2-c1ccc(C(F)(F)F)cc1 (centres unmarked) [Example C145, N-[(2-aminopropyl)(methyl)oxo-λ^6-sulfanylidene]-2-methyl-8-[4-(trifluoromethyl)phenyl]-2H,8H-pyrazolo[3,4-b]indole-5-carboxamide] the IC50 was 0.1 to 10 µM.
In the case of COCCS(=O)(CCN)=NC(=O)c1ccc2c(c1)c1cn(C)nc1n2-c1ccc(C(F)(F)F)cc1 (centres unmarked) [Example C146, N-[(2-aminoethyl)(2-methoxyethyl)oxo-λ^6-sulfanylidene]-2-methyl-8-[4-(trifluoromethyl)phenyl]-2H,8H-pyrazolo[3,4-b]indole-5-carboxamide], the IC50 is reported as 0.1 to 10 µM.
Cn1cc2c3cc(C(=O)N4CC[C@@H](O)C4)ccc3n(-c3ccc(C(F)(F)F)cn3)c2n1 [Example C152, (3R)-1-{2-methyl-8-[5-(trifluoromethyl)pyridin-2-yl]-2H,8H-pyrazolo[3,4-b]indole-5-carbonyl}pyrrolidin-3-ol] gave an IC50 of over 10 µM.
With C[C@H](CO)C(=O)Nc1ccc2c(c1)c1cn(C)nc1n2-c1ccc(C(F)(F)F)cc1 [Example C154, (2R)-3-hydroxy-2-methyl-N-{2-methyl-8-[4-(trifluoromethyl)phenyl]-2H,8H-pyrazolo[3,4-b]indol-5-yl}propanamide] the IC50 was 0.1 to 10 µM.
Work on C[C@H](CO)NC(=O)c1ccc2c(c1)c1cn(C)nc1n2-c1ccc(F)cc1 [Example C155, 8-(4-fluorophenyl)-N-[(2R)-1-hydroxypropan-2-yl]-2-methyl-2H,8H-pyrazolo[3,4-b]indole-5-carboxamide] yielded an IC50 of 0.1 to 10 µM.
Work on Cn1cnc2c1c1cc(C3CC(Br)=NO3)ccc1n2-c1ccc(C(F)(F)F)cc1 (centres unmarked) [Example C158, 3-bromo-5-{1-methyl-4-[4-(trifluoromethyl)phenyl]-1H,4H-imidazo[4,5-b]indol-7-yl}-4,5-dihydro-1,2-oxazole] yielded an IC50 of 0.1 to 10 µM.
With CC(NC(=O)c1ccc2c(c1)c1cn(C)nc1n2-c1ccc(C(F)(F)F)cc1)c1cccc(NC(=O)OC(C)(C)C)n1 (centres unmarked) [Example C165, tert-butyl N-{6-[1-({2-methyl-8-[4-(trifluoromethyl)phenyl]-2H,8H-pyrazolo[3,4-b]indol-5-yl}formamido)ethyl]pyridin-2-yl}carbamate] the IC50 was 0.1 to 10 µM.
For Cn1cc2c3cc(C(=O)N4CC[C@@H](O)C4)ccc3n(-c3ccc(C(F)(F)F)c(F)c3)c2n1 [Example C171, (3R)-1-{8-[3-fluoro-4-(trifluoromethyl)phenyl]-2-methyl-2H,8H-pyrazolo[3,4-b]indole-5-carbonyl}pyrrolidin-3-ol], the IC50 was 0.1 to 10 µM.
Cn1cc2c3cc(C(=O)N=S4(=O)CC(C#N)C4)ccc3n(-c3ccc(C(F)(F)F)cc3)c2n1 (centres unmarked) [Example C178, N-(3-cyano-1-oxo-1¿6-thietan-1-ylidene)-2-methyl-8-[4-(trifluoromethyl)phenyl]-2H,8H-pyrazolo[3,4-b]indole-5-carboxamide] gave an IC50 of 0.1 to 10 µM.
Molecule C=Cc1ccc2c(c1)c1c(ncn1C)n2-c1ccc(C(F)(F)F)cc1 [Example C179, 7-ethenyl-1-methyl-4-[4-(trifluoromethyl)phenyl]-1H,4H-imidazo [4,5-b]indole] has an IC50 of 0.1 to 10 µM.
Work on [2H]C1([2H])C(n2c3ccc(C(=O)N[C@H](C)CO)cc3c3cn(C)nc32)C([2H])([2H])C([2H])([2H])C([2H])([2H])C1([2H])[2H] [Example C197] yielded an IC50 of 0.1 to 10 µM.
Molecule Cn1cc2c3cc(C(=O)NC4CCNCC4)ccc3n(-c3ccc(C(F)(F)F)cc3)c2n1 [Example C203, 2-methyl-N-(piperidin-4-yl)-8-[4-(trifluoromethyl)phenyl]-2H,8H-pyrazolo[3,4-b]indole-5-carboxamide trifluoroacetate] has an IC50 of 0.1 to 10 µM.
For Cn1cc2c3cc(C(N)=O)ccc3n(C3CC4(C3)CC(F)(F)C4)c2n1 [Example C205, 8-{6,6-difluorospiro[3.3]heptan-2-yl}-2-methyl-2H,8H-pyrazolo[3,4-b]indole-5-carboxamide], the IC50 was 0.1 to 10 µM.
With CNC(=O)c1ccc2c(c1)c1cn(C)nc1n2C1CC2(C1)CC(F)(F)C2 [Example C206, 8-{6,6-difluorospiro[3.3]heptan-2-yl}-N,2-dimethyl-2H,8H-pyrazolo[3,4-b]indole-5-carboxamide] the IC50 was 0.01 to 0.1 µM.
In the case of C[C@H](CO)NC(=O)c1ccc2c(c1)c1cn(C)nc1n2C1CC2(C1)CC(F)(F)C2 [Example C207, 8-{6,6-difluorospiro[3.3]heptan-2-yl}-N-[(2R)-1-hydroxypropan-2-yl]-2-methyl-2H,8H-pyrazolo[3,4-b]indole-5-carboxamide], the IC50 is reported as 0.1 to 10 µM.
Cn1cnc2c1c1cc(C3CC(n4ccnn4)=NO3)ccc1n2-c1ccc(C(F)(F)F)cc1 (centres unmarked) [Example C211, 1-(5-{1-methyl-4-[4-(trifluoromethyl)phenyl]-1H,4H-imidazo[4,5-b]indol-7-yl}-4,5-dihydro-1,2-oxazol-3-yl)-1H-1,2,3-triazole] showed an IC50 of 0.1 to 10 µM.
Molecule Cn1cnc2c1c1cc(C3CC(n4nccn4)=NO3)ccc1n2-c1ccc(C(F)(F)F)cc1 (centres unmarked) [Example C212, 2-(5-{1-methyl-4-[4-(trifluoromethyl)phenyl]-1H,4H-imidazo[4,5-b]indol-7-yl}-4,5-dihydro-1,2-oxazol-3-yl)-2H-1,2,3-triazole] has an IC50 of 0.1 to 10 µM.
With Cn1cc2c3cc(C(=O)NC4CCNCC4(F)F)ccc3n(-c3ccc(C(F)(F)F)cc3)c2n1 (centres unmarked) [Example C217, N-(3,3-difluoropiperidin-4-yl)-2-methyl-8-[4-(trifluoromethyl)phenyl]-2H,8H-pyrazolo[3,4-b]indole-5-carboxamide] the IC50 was over 10 µM.

Same assay, conditions: Homo sapiens, SK-HEP1, SK-HEP-1 reporter assay; n.d. = value not detectable below threshold given in parentheses; ND = not determinable within the entire range
With Cn1cc2c3cc(C(=O)N=S4(=O)CCC5(CC4)CC(N)CCO5)ccc3n(-c3ccc(C(F)(F)F)cc3)c2n1 (centres unmarked) [Example C143, N-{4-amino-9-oxo-1-oxa-9lambda6-thiaspiro[5.5]undecan-9-ylidene}-2-methyl-8-[4-(trifluoromethyl)phenyl]-2H,8H-pyrazolo[3,4-b]indole-5-carboxamide] the IC50 was over 3.2 µM.

Same assay, conditions: SK-HEP-1 reporter assay; class symbols
Molecule Cn1cnc2c1c1cc(C3CC(Oc4cncnc4)=NO3)ccc1n2-c1ccc(C(F)(F)F)cc1 (centres unmarked) [Example C215, 5-[(5-{1-methyl-4-[4-(trifluoromethyl)phenyl]-1H,4H-imidazo[4,5-b]indol-7-yl}-4,5-dihydro-1,2-oxazol-3-yl)oxy]pyrimidine] has an IC50 of 0.1 to 10 µM.
